Results taken from US20250345370A1, “MICROBIAL LIBERATION OF N-METHYLSEROTONIN FROM ORANGE FIBER” (Washington University, priority 2022, published 2025).
Like-named read-outs stand apart in the source and are kept apart here.

Tests used:
[1] = In vitro screening of bacterial strains for N-methylserotonin releasing activity from orange fiber; assay type: cell-based, human gut bacterial strains; details: for N-methylserotonin released, MEGA Medium 2.0 72 hrs / N-methylserotonin released, TYG medium 8 hrs / N-methylserotonin released, TYG medium 24 hrs / N-methylserotonin released, TYG medium 48 hrs / N-methylserotonin released, TYG medium 72 hrs / N-methylserotonin released, Wilkins-Chalgren 72 hrs: 5 mg/ml orange fiber, normalized to 10^6 microbes, n=3
Protocol: In vitro screening of bacterial strains for N-methylserotonin releasing activity. A given bacterial strain was grown in monoculture at 37° C. in TYG medium in an anaerobic chamber (atmosphere; 75% N2, 20% CO2 and 5% H2) to stationary phase. An aliquot was then added to 10 mL of fresh TYG medium with or without 50 mg of orange fiber that had been sterilized by gamma irradiation (30-50 KGy); the mixture was incubated under anaerobic conditions without shaking for 72 hours. A 200 μL aliquot was then removed for targeted LC-QqQ-MS measurement of N-methylserotonin levels; another aliquot was used to define the number of colony-forming units so that levels of the analyte were expressed per 10^6 cells. An identical protocol was used to compare the amount of N-methylserotonin released when two other rich media, MEGA medium 2.0 and Wilkins-Chalgren anaerobe broth (Thermo-Fisher), were used in lieu of TYG. All incubations were performed in triplicate for each condition. […]
Bacterial strains capable of mining of N-methylserotonin from orange fiber in vitro. Given that detection of N-methylserotonin was dependent on colonization with the bacterial consortium and consumption of orange fiber, it was next investigated which community members were responsible for its appearance. Each of the 14 community members was grown in monoculture to stationary phase in TYG medium; 10^5 cells of each organism were incubated in 10 mL of a 5 mg/mL suspension of orange fiber for 8, 24, 48, 72 and 168 hours. N-methylserotonin was quantified using targeted LC-QqQ-MS. […] At this time point, Bacteroides ovatus strain TSDC 17.2 and a strain of Parabacteroides distasonis yielded similar quantities of product (29±1 and 24±2 ng N-methylserotonin/10^6 cells, respectively). In contrast, the 12 other strains yielded<1.5 ng/10^6 cells—an amount that was not appreciably higher than background levels (triplicate incubations/organism; FIG. 1C). […]

rat hepatocytes = details: cited from earlier work
[2] = Control experiments of bacterial N-methylserotonin release (heat-killed cells, conditioned media, lysates); assay type: cell-based, human gut bacterial strains
Protocol: Experiments seeking to test the necessity of having live bacteria to extract N-methylserotonin were carried out by first incubating monocultures of B. ovatus, B. finegoldii, […] conditions to stationary phase. The stationary phase culture was then treated at 70° C. for 1 hour. […]
Experiments using conditioned media were carried out by taking monocultures of B. ovatus, B. finegoldii, P. distasonis, […], centrifuging the culture for […]
Experiments using bacterial lysates were carried out by bead-beating of bacterial cells, collected by centrifugation from 10 mL stationary phase TYG cultures for 4 minutes at room temperature; 500 μL of the […] To ensure sterility in these experiments, aliquots of the heat-treated cells, centrifuged conditioned media, or bacterial lysate were cultured in TYG medium for 7 days and subsequently plated on TYG-agar; the results confirmed the absence of colony forming units. Assays were performed in triplicate for each experimental condition.
These experiments indicate that mining requires intact viable cells.

[3] = for 2-methylserotonin remaining: 200 ng spike-in
[4] = Human studies with pea and orange fiber snack prototypes: fecal N-methylserotonin and serotonin levels; assay type: in vivo; details: in vivo
Protocol: Human studies with pea and orange fiber snack prototypes. Two separate open-label, single group assignment studies were performed involving members of the Missouri Adolescent Female Twin Study (MOAFTS) cohort who were age 31-45 years at the time of enrollment. The first study with the pea fiber snack was performed between April and August 2017, while the second study with the orange fiber snack was conducted between August and December 2017. All participants provided written informed consent and the studies were approved by the Washington University Institutional Review Board (IRB ID #201611122). (ClinicalTrials.gov NCT03078283).
The design of the two studies were identical except for the fiber snack supplement used and the number of participants in each study. Individuals who were pregnant or trying to get pregnant, had inflammatory bowel disease, gastrointestinal cancer, hepatitis, HIV, renal failure, or allergies to dairy, eggs, fish, crustacean shellfish, tree nuts, sesame seeds, peanuts, wheat, gluten, soybeans, celery, or mustard were excluded from the study. In Study 1, four twin pairs were concordant for obesity (BMI>30 kg/m2) while five pairs were discordant with one member being obese and the other non-obese (n=18 participants, […] (mean±SD); Table S8B). Study 2 involved 24 participants: 12 dizygotic twin pairs [37±2.9 years (mean±SD)], nine of whom had participated in the pea fiber study; for these nine pairs, the interval between cessation of pea fiber snack consumption and initiation of orange fiber consumption ranged from 50 to 106 days [84+26 days (mean±SD)]. Participants consumed their normal, unrestricted diet for the first two weeks of the study (pre-intervention phase). At the beginning of week three, they supplemented their diets with one 35 g fiber snack serving a day for one week, then two 35 g snack servings a day the following week, and thereafter, three 35 g snacks per day for four weeks (weeks 5-8) at breakfast, lunch and dinner. No attempt was made to adjust the diets of participants other than supplementation with the fiber snack. Snack prototypes were manufactured by Mondeldz International, Inc. (see Table S8A for their composition), which participants received in weekly shipments from the study center. The pea fiber snacks were in the form of rotary biscuits (6.7 g total fiber/35 g snack) or extruded bars (8.1 g fiber/35 g snack) with participants having the option to alternate between them. The orange fiber snacks were all in the form of extruded bars (10.2 g total fiber/35 g snack). Compliance was monitored throughout by the study coordinator through weekly phone calls. The primary outcomes for each study were the effects of the respective prototypes on gut microbial community structure and function.
Fecal samples were collected by participants in small medically approved collection containers. Each fecal sample was frozen immediately at −20° C. and temporarily stored in dedicated freezers provided to participants at the beginning of the study. Within 12-48 hours after collection, all samples were shipped, via overnight delivery, in an insulated container containing frozen gel packs, to a biospecimen repository located in Washington University in St. Louis and overseen by one of the authors (A.C.H.). Once received, samples were stored at −80° C. until processing for LC-QqQ-MS analysis of N-methylserotonin levels and culture-independent characterization of ASV and CAZyme gene abundances.
Measurement of fecal N-methylserotonin levels—Each fecal sample was homogenized with a porcelain mortar (4 L) and pestle while submerged in liquid nitrogen; multiple 500 mg aliquots of the pulverized frozen material were stored at −80° C. N-methylserotonin was quantified using the same protocol that was employed for mouse fecal samples (as described herein elsewhere).
N-methylserotonin levels and microbiome CAZyme gene abundances in humans consuming fiber snack prototypes. […]

[5] = Release of N-methylserotonin from orange fiber by commercially available glycoside hydrolase preparations; assay type: biochemical
Protocol: Enzymatic screening of citrus & plant samples. All enzymatic assays are carried out using a total volume of 10 ml in water, 50 mg of plant fiber material tested and 700 active units of the same cellulase enzyme mixture (Sigma) as described herein. Samples were processed based on their condition, divided as follows. Citrus fibers sourced from various citrus types, described in Table S9 as “Ground,” are added directly to the enzymatic assay, while citrus fibers described as either “Granule” or “Whole” are first manually pulverized into a fine powder via mortar and pestle. The commercially available fiber source is classified as “Ground” if it was already processed into fine powder, or otherwise small enough granules in which individual pieces cannot be manually picked up via forceps. The commercially available fiber source is classified as “Granule” or “Whole” if individual fragments or pieces of the fiber is readily discernable, where “Granule” are applied to visibly uniform samples and “Whole” applied to all other samples. […]
Identifying genes involved in release of N-methylserotonin from orange fiber. […] When orange fiber (50 mg) was subjected to repeated rounds of extraction with methanol, small quantities of N-methylserotonin were released after each round (31 ng after two rounds; 171 ng in total after 15 rounds; Table S4F). […]

Bacteroides cellulosilyticus
N-methylserotonin released, MEGA Medium 2.0 72 hrs [1]: 1.0 ± 0.2 ng | N-methylserotonin released, TYG medium 8 hrs [1]: 0.3 ± 0.1 ng | N-methylserotonin released, TYG medium 24 hrs [1]: 0.3 ± 0.1 ng | N-methylserotonin released, TYG medium 48 hrs [1]: 0.6 ± 0.1 ng | N-methylserotonin released, TYG medium 72 hrs [1]: 0.9 ± 0.2 ng | N-methylserotonin released, Wilkins-Chalgren 72 hrs [1]: 1 ± 0.2 ng

CC(N)Cc1c[nH]c2ccc(O)cc12 (stereo not drawn) [alpha-methylserotonin]
glycogen synthesis (rat hepatocytes): able to increase glycogen synthesis

Parabacteroides distasonis
N-methylserotonin released, MEGA Medium 2.0 72 hrs [1]: 24.8 ± 2.1 ng | N-methylserotonin released, TYG medium 8 hrs [1]: 0.3 ± 0.1 ng | N-methylserotonin released, TYG medium 24 hrs [1]: 1.0 ± 0.1 ng | N-methylserotonin released, TYG medium 48 hrs [1]: 7.5 ± 0.7 ng | N-methylserotonin released, TYG medium 72 hrs [1]: 24.3 ± 2.4 ng | N-methylserotonin released, Wilkins-Chalgren 72 hrs [1]: 22.1 ± 0.7 ng | N-methylserotonin yielded at the 72-hour time point ([1]; TYG, 5 mg/mL orange fiber, triplicate): 24±2 ng N-methylserotonin/10^6 cells | N-methylserotonin levels, Cellular extract ([2]; Mega 2.0 (+orange fiber)): 0.3 ± 0.1 ng | N-methylserotonin levels, Conditioned media ([2]; Mega 2.0 (+orange fiber)): 0.3 ± 0.1 ng | N-methylserotonin levels, Heat inactivated ([2]; Mega 2.0 (+orange fiber)): 0.4 ± 0.1 ng | N-methylserotonin levels, Cellular extract ([2]; Mega 2.0, no orange fiber): ND (ND (not detected)=N-methylserotonin levels below 0.02 ng) | N-methylserotonin levels, Conditioned media ([2]; Mega 2.0, no orange fiber): ND (ND (not detected)=N-methylserotonin levels below 0.02 ng) | N-methylserotonin levels, Heat inactivated ([2]; Mega 2.0, no orange fiber): ND (ND (not detected)=N-methylserotonin levels below 0.02 ng) | N-methylserotonin levels, Cellular extract ([2]; TYG (+orange fiber)): 0.2 ± 0.1 ng | N-methylserotonin levels, Conditioned media ([2]; TYG (+orange fiber)): 0.3 ± 0.1 ng | N-methylserotonin levels, Heat inactivated ([2]; TYG (+orange fiber)): 0.3 ± 0.1 ng | N-methylserotonin levels, Cellular extract ([2]; TYG, no orange fiber): ND (ND (not detected)=N-methylserotonin levels below 0.02 ng) | N-methylserotonin levels, Conditioned media ([2]; TYG, no orange fiber): ND (ND (not detected)=N-methylserotonin levels below 0.02 ng) | N-methylserotonin levels, Heat inactivated ([2]; TYG, no orange fiber): ND (ND (not detected)=N-methylserotonin levels below 0.02 ng) | N-methylserotonin levels with heat-killed cells, lysates or conditioned medium ([2]; fresh TYG with orange fiber, 72 hours): failed to yield levels of N-methylserotonin above background

Cc1[nH]c2ccc(O)cc2c1CCN [2-methylserotonin, reference compound]
2-methylserotonin remaining ([3]; Extraction 1): 190 ng | 2-methylserotonin remaining ([3]; Extraction 2): 10 ng | 2-methylserotonin remaining ([3]; Extraction 3): 0 ng | 2-methylserotonin remaining ([3]; Extraction 4): 0 ng | 2-methylserotonin remaining ([3]; Extraction 5): 0 ng | 2-methylserotonin remaining ([3]; Extraction 6): 0 ng | 2-methylserotonin remaining ([3]; Extraction 7): 0 ng | 2-methylserotonin remaining ([3]; Extraction 8): 0 ng | 2-methylserotonin remaining ([3]; Extraction 9): 0 ng | 2-methylserotonin remaining ([3]; Extraction 10): 0 ng | 2-methylserotonin remaining ([3]; Extraction 11): 0 ng | 2-methylserotonin remaining ([3]; Extraction 12): 0 ng | 2-methylserotonin remaining ([3]; Extraction 13): 0 ng | 2-methylserotonin remaining ([3]; Extraction 14): 0 ng | 2-methylserotonin remaining ([3]; Extraction 15): 0 ng | 2-methylserotonin removed by the first cycle of extraction ([3]; methanol, spike-in added to orange fiber): 95%

NCCc1c[nH]c2ccc(O)cc12 [serotonin]
glycogen synthesis (rat hepatocytes): decreases glycogen synthesis | fecal serotonin levels ([4]; female, human): 7 ± 5.7 µM | fecal serotonin levels as % of that of N-methylserotonin [4]: 0-8.6%

Cellulase
N-methylserotonin levels at 72 h ([5]; 50 mg orange fiber incubated with enzyme): 2727.9 ± 25.5 ng | total yield of N-methylserotonin ([5]; orange fiber incubated with enzyme preparation): 2728±26 ng/50 mg orange fiber
